Reference: patent US20230091225A1, “Bifunctional chimeric heterocyclic compounds for targeted degradation of androgen receptors and use thereof” (HINOVA PHARMACEUTICALS INC., priority 2019, published 2023)

The compounds below were run against T1, androgen receptor (AR) (Homo sapiens, UniProt P10275) (assay: Degradation of androgen receptor (AR) protein in VCaP cells by ELISA). Conditions: AR degradation, VCaP cells, 16 h, ELISA, Table 3-2; read-out: DC50.
T1 sequence (P10275 1-920): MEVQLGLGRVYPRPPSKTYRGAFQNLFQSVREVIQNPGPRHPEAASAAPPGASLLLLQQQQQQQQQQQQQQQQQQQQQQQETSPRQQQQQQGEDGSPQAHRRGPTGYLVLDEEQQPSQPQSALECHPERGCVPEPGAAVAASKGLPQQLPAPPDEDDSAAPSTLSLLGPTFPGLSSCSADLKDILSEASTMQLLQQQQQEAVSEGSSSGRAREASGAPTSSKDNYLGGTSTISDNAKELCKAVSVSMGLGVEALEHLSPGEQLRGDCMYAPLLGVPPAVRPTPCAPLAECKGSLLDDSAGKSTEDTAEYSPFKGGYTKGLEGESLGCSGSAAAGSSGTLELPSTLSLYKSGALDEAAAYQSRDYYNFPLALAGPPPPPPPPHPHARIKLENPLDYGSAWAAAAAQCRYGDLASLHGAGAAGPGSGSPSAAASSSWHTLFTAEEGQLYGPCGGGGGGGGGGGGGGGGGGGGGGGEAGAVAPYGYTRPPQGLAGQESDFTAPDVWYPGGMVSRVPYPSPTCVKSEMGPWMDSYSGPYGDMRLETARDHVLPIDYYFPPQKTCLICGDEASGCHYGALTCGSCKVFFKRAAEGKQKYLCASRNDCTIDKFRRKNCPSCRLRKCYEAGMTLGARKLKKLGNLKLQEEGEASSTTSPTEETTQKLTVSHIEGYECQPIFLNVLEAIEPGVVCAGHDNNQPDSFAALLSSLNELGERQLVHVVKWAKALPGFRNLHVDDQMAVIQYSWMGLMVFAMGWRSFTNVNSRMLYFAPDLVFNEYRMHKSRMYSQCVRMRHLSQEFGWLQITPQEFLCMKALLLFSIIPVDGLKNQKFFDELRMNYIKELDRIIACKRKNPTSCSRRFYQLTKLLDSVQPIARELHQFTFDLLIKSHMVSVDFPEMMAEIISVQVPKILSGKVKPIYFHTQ
Assay type: cell-based

Compound	DC50
N#Cc1ccc(O[C@H]2CC[C@H](NC(=O)c3cnc(N4CCC(CN5CCC6(CC5)CN(c5cc7c(cc5F)C(=O)N(C5CCC(=O)NC5=O)C7=O)C6)CC4)nn3)CC2)cc1Cl (stereo partly shown) [Compound 158]	< 10 nM

Same assay, conditions: VCaP

Compound	Dmax
N#Cc1ccc(O[C@H]2CC[C@H](NC(=O)c3cnc(N4CCC(CN5CCC6(CC5)CN(c5cc7c(cc5F)C(=O)N(C5CCC(=O)NC5=O)C7=O)C6)CC4)nn3)CC2)cc1Cl (stereo partly shown) [Compound 158]	> 80%

Each compound was assayed on LNCaP/AR cells (assay: Inhibition of proliferation of LNCaP/AR prostate cancer cells (CCK-8)). Conditions: 144 h; proliferation of LNCap/AR cells, 6 days, CCK-8; read-out: IC50.
Assay type: cell-based

IC50	Compound
< 100 nM	Cc1ncsc1-c1ccc([C@H](C)NC(=O)[C@@H]2C[C@@H](O)CN2C(=O)[C@@H](NC(=O)COCCCC#Cc2ccc3c(c2)CN([C@H]2C(C)(C)[C@H](Oc4ccc(C#N)c(Cl)c4)C2(C)C)C3=O)C(C)(C)C)cc1 [Compound 21]
< 100 nM	Cc1ncsc1-c1ccc([C@H](C)NC(=O)[C@@H]2C[C@@H](O)CN2C(=O)[C@@H](NC(=O)COCCCCC#Cc2ccc3c(c2)CN([C@H]2C(C)(C)[C@H](Oc4ccc(C#N)c(Cl)c4)C2(C)C)C3=O)C(C)(C)C)cc1 [Compound 29]
> 1000 nM	CC1(C)[C@H](Oc2ccc(C#N)c(Cl)c2)C(C)(C)[C@H]1N1Cc2cc(C#Cc3cnn(C4CN(c5cc6c(cc5F)C(=O)N(C5CCC(=O)NC5=O)C6=O)C4)c3)ccc2C1=O (stereo partly shown) [Compound 45]
100 to 500 nM	CC1(C)[C@H](Oc2ccc(C#N)c(Cl)c2)C(C)(C)[C@H]1N1Cc2cc(C#CC3CCN(C4CCN(c5ccc6c(c5)C(=O)N(C5CCC(=O)NC5=O)C6=O)CC4)CC3)ccc2C1=O (stereo partly shown) [Compound 52]
500 to 1000 nM	[2H]C([2H])([2H])N(C(=O)c1ccc(N2CCC(CN3CCN(c4cc5c(cc4F)C(=O)N(C4CCC(=O)NC4=O)C5)CC3)CC2)nc1)[C@H]1CC[C@H](Oc2ccc(C#N)c(Cl)c2)CC1 (stereo partly shown) [Compound 305, N-((1r,4r)-4-(3-chloro-4-cyanophenoxy)cyclohexyl)-6-(4-((4-(2-(2,6-dioxopiperidin-3-yl)-6-fluoro-1-oxoisoindol-5-yl)piperazin-1-yl)methyl)piperidin-1-yl)-N-deuteromethylnicotinamide]
> 1000 nM	[2H]C([2H])([2H])N(C(=O)c1ccc(N2CCC(CN3CCN(c4cc5c(cc4F)CN(C4CCC(=O)NC4=O)C5=O)CC3)CC2)nc1)[C@H]1CC[C@H](Oc2ccc(C#N)c(Cl)c2)CC1 (stereo partly shown) [Compound 306, N-((1r,4r)-4-(3-chloro-4-cyanophenoxy)cyclohexyl)-6-(4-((4-(2-(2,6-dioxopiperidin-3-yl)-6-fluoro-3-oxoisoindol-5-yl)piperazin-1-yl)methyl)piperidin-1-yl)-N-deuteromethylnicotinamide]

Compound	IC50
CC1(C)[C@H](Oc2ccc(C#N)c(Cl)c2)C(C)(C)[C@H]1N1Cc2cc(C#CC3CCN(C4CN(c5ccc6c(c5)C(=O)N(C5CCC(=O)NC5=O)C6=O)C4)CC3)ccc2C1=O (stereo partly shown) [Compound 53, 2-chloro-4-((1r,3r)-3-(5-((1-(I-(2-(2,6-dioxopiperidin-3-yl)-1,3-dioxoisoindolin-5-yl)azelaic acid-3-yl)piperidin-4-yl)ethynyl)-1-oxoisoindolin-2-yl)-2,2,4,4-tetramethylcyclobutoxy)benzonitrile]	100 to 500 nM

Same assay, conditions: LNCaP/AR, 144 h

Compound	IC50
Cc1ncsc1-c1ccc([C@H](C)NC(=O)[C@@H]2C[C@@H](O)CN2C(=O)[C@@H](NC(=O)COCCOC(C)C#Cc2ccc3c(c2)CN([C@H]2C(C)(C)[C@H](Oc4ccc(C#N)c(Cl)c4)C2(C)C)C3=O)C(C)(C)C)cc1 (stereo partly shown) [Compound 37]	< 100 nM
Cc1ncsc1-c1ccc([C@H](C)NC(=O)[C@@H]2C[C@@H](O)CN2C(=O)[C@@H](NC(=O)CCN2CC(CC#Cc3ccc4c(c3)CN([C@H]3C(C)(C)[C@H](Oc5ccc(C#N)c(Cl)c5)C3(C)C)C4=O)C2)C(C)(C)C)cc1 [Compound 44]	100 to 500 nM

Same assay, conditions: proliferation of LNCap/AR cells, 6 days, CCK-8; read-out: IC50

Compound	IC50
2-chloro-4-((1r,4r)-4-(2-(4-((4-(3-(2,6-dioxopiperidin-3-yl)-2-methyl-4-oxo-3,4-dihydroquinazoline-7-yl)piperazin-1-yl)methyl)piperidin-1-yl)-5-oxo-5H-pyrrolo[3,4-b]pyridin-6(7H)-yl)cyclohexyl)oxy)benzonitrile [Compound 309]	100 to 500 nM
Cc1ncsc1-c1ccc([C@H](C)NC(=O)[C@@H]2C[C@@H](O)CN2C(=O)[C@@H](NC(=O)C2(C(=O)NCCCC#Cc3ccc4c(c3)CN(C3C(C)(C)C(Oc5ccc(C#N)c(Cl)c5)C3(C)C)C4=O)CC2)C(C)(C)C)cc1 (stereo partly shown) [Compound 25]	< 100 nM
Cc1ncsc1-c1ccc([C@H](C)NC(=O)[C@@H]2C[C@@H](O)CN2C(=O)[C@@H](NC(=O)COCCCCn2cc(-c3ccc4c(c3)CN([C@H]3C(C)(C)[C@H](Oc5ccc(C#N)c(Cl)c5)C3(C)C)C4=O)nn2)C(C)(C)C)cc1 [Compound 30, (2s,4r)-1-((s)-2-(2-(4-(4-(2-((1r,3r)-3-(3-chloro-4-cyanophenoxy)-2,2,4,4-tetramethylcyclobutyl)-1-oxoisobutanol-5-yl)-1H-1,2,3-triazol-1-yl)butoxy)acetamido)-3,3-dimethylbutyryl)-4-hydroxy-N-((S)-1-(4-(4-methylthiazol-5-yl)phenyl)ethyl)pyrrolidine-2-carboxamide]	100 to 500 nM
Cc1ncsc1-c1ccc([C@H](C)NC(=O)[C@@H]2C[C@@H](O)CN2C(=O)[C@@H](NC(=O)C2(OCCCCC#Cc3ccc4c(c3)CN(C3C(C)(C)C(Oc5ccc(C#N)c(Cl)c5)C3(C)C)C4=O)CC2)C(C)(C)C)cc1 (stereo partly shown) [Compound 41]	< 100 nM
CC1(C)C(Oc2ccc(C#N)c(Cl)c2)C(C)(C)C1N1Cc2nc(N3CCC(CN4CCN(c5ccc6c(c5)C(=O)N([C@@H]5CCC(=O)NC5=O)C6=O)CC4)CC3)ccc2C1=O (stereo partly shown) [Compound 202, 2-chloro-4-((1r,3r)-3-(2-(4-((4-(2,6-dioxopiperidin-3-yl-1,3-dioxoisoindolin-5-yl)piperazin-1-yl)methyl)piperidin-1-yl)-5-oxo-5,7-dihydro-6H-pyrrolo[3,4-b]pyridin-6-yl)-2,2,4,4-tetramethylcyclobutoxy)benzonitrile]	100 to 500 nM

Each compound was assayed against T1, androgen receptor (AR) (assay: Degradation of androgen receptor (AR) protein in VCaP cells by Western blot). Conditions: percentage of degraded AR at 100 nM, VCaP cells, 16 h.
Assay type: cell-based
Outline: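 VCaP cells (5×10^5/well) were seeded overnight, then treated in duplicate for 16 h with compound in 0.1% DMSO final. Lysates (30 μg protein) were immunoblotted for AR (D6F11) with β-actin as loading control, detected by ECL chemiluminescence.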

inhibition at 0.1 µM	Compound
25 to 49%	N#Cc1ccc(O[C@H]2CC[C@H](N3Cc4nc(C#CC5CCN(C6CCN(c7cc8c(cc7F)C(=O)N(C7CCC(=O)NC7=O)C8=O)CC6)CC5)ccc4C3=O)CC2)cc1Cl (stereo partly shown) [Compound 324, 2-Chloro-4-((1r,4r)-4-(2-((1′-(2,6-dioxopiperidin-3-yl)-6-fluoro-1,3-dioxoisoindolin-5-yl)-1,4′-dipiperidine-4-yl)ethynyl)-5-oxo-5H-pyrrolo[3,4-b]pyridin-6(7H)-cyclohexaneoxy)benzonitrile]
50 to 79%	CC1(C)[C@H](Oc2ccc(C#N)c(Cl)c2)C(C)(C)[C@H]1N1Cc2nc(C#C[C@H]3CC[C@H](N4CCN(c5cc6c(cc5F)C(=O)N(C5CCC(=O)NC5=O)C6=O)CC4)CC3)ccc2C1=O (stereo partly shown) [Compound 326]
50 to 79%	CC1(C)[C@H](Oc2ccc(C#N)c(Cl)c2)C(C)(C)[C@H]1N1Cc2nc(C#CC3CC(NC4CCN(c5cc6c(cc5F)C(=O)N(C5CCC(=O)NC5=O)C6=O)CC4)C3)ccc2C1=O (stereo partly shown) [Compound 329]
25 to 49%	CN(C1CCN(c2ccc3c(c2)C(=O)N(C2CCC(=O)NC2=O)C3=O)CC1)C1CC(C#Cc2ccc3c(n2)CN([C@H]2C(C)(C)[C@H](Oc4ccc(C#N)c(Cl)c4)C2(C)C)C3=O)C1 (stereo partly shown) [Compound 331]
50 to 79%	CN(C1CCN(c2cc3c(cc2F)C(=O)N(C2CCC(=O)NC2=O)C3=O)CC1)C1CC(C#Cc2ccc3c(n2)CN([C@H]2C(C)(C)[C@H](Oc4ccc(C#N)c(Cl)c4)C2(C)C)C3=O)C1 (stereo partly shown) [Compound 332]
50 to 79%	CC1(C)[C@H](Oc2ccc(C#N)c(Cl)c2)C(C)(C)[C@H]1N1Cc2nc(C#CC3CCN(CC4CCN(c5cc6c(cc5F)C(=O)N(C5CCC(=O)NC5=O)C6=O)CC4)CC3)ccc2C1=O (stereo partly shown) [Compound 333]
> 80%	CC1(C)[C@H](Oc2ccc(C#N)c(Cl)c2)C(C)(C)[C@H]1N1Cc2nc(C#CC3CCN(CC4CN(c5cc6c(cc5F)C(=O)N(C5CCC(=O)NC5=O)C6=O)C4)CC3)ccc2C1=O (stereo partly shown) [Compound 334]

Compound	inhibition at 0.1 µM
N#Cc1ccc(O[C@H]2CC[C@H](NC(=O)c3cnc(N4CCC(CN5CCC6(CC5)CN(c5cc7c(cc5F)C(=O)N(C5CCC(=O)NC5=O)C7=O)C6)CC4)nn3)CC2)cc1Cl (stereo partly shown) [Compound 158]	> 80%
CC1(C)[C@H](Oc2ccc(C#N)c(Cl)c2)C(C)(C)[C@H]1N1Cc2nc(C#CC3CC(NC4CCN(c5ccc6c(c5)C(=O)N(C5CCC(=O)NC5=O)C6=O)CC4)C3)ccc2C1=O (stereo partly shown) [Compound 327, 2-Chloro-4-((1r,3r)-3-(2-((3-(1-(2-(2,6-dioxopiperidin-3-yl)-1,3-dioxoisoindolin-5-yl)piperidine-4-ylamino)cyclobutyl)ethynyl)-5-oxo-5,7-dihydro-pyrrolo[3,4-b]pyridin-6-yl)-2,2,4,4-tetramethylcyclobutoxy)benzonitrile]	50 to 79%
